Measurements: PubChem BioAssay (NCI)
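Five compound concentrations were applied to cells in 96-well plates for 48 hours; endpoints were derived by simple linear interpolation of the resulting dose-response curve. TGI: total growth inhibition.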

Tests used:
Experiment in all cases: growth of human tumour cells (NCI), 48 h
A549 NSCLC = test system: A549 NSCLC
CAKI-1 renal = test system: CAKI-1 renal
SK-MEL-28 melanoma = test system: SK-MEL-28 melanoma
MCF7 breast = test system: MCF7 breast
SNB-19 CNS = test system: SNB-19 CNS
RPMI-8226 leukemia = test system: RPMI-8226 leukemia
NCI-H460 lung = test system: NCI-H460 lung
MDA-MB-435 = test system: MDA-MB-435
KM12 colon = test system: KM12 colon
PC-3 prostate = test system: PC-3 prostate
SN12C renal = test system: SN12C renal
HOP-62 NSCLC = test system: HOP-62 NSCLC
SR leukemia = test system: SR leukemia
SK-MEL-5 melanoma = test system: SK-MEL-5 melanoma
LOX IMVI melanoma = test system: LOX IMVI melanoma
A498 renal = test system: A498 renal
MOLT-4 leukemia = test system: MOLT-4 leukemia
SF-295 CNS = test system: SF-295 CNS
M14 melanoma = test system: M14 melanoma
786-0 renal = test system: 786-0 renal
T-47D breast = test system: T-47D breast
U251 CNS = test system: U251 CNS
MDA-N = test system: MDA-N
EKVX NSCLC = test system: EKVX NSCLC
DU-145 prostate = test system: DU-145 prostate
HOP-92 NSCLC = test system: HOP-92 NSCLC
SW-620 colon = test system: SW-620 colon
OVCAR-5 ovarian = test system: OVCAR-5 ovarian
SK-OV-3 ovarian = test system: SK-OV-3 ovarian
NCI/ADR-RES ovarian = test system: NCI/ADR-RES ovarian
NCI-H226 lung = test system: NCI-H226 lung
ACHN renal = test system: ACHN renal
IGROV1 ovarian = test system: IGROV1 ovarian
HCT-116 colon = test system: HCT-116 colon
SNB-75 CNS = test system: SNB-75 CNS
OVCAR-8 ovarian = test system: OVCAR-8 ovarian
BT-549 breast = test system: BT-549 breast
K-562 leukemia = test system: K-562 leukemia
HCC-2998 colon = test system: HCC-2998 colon
MDA-MB-231 breast = test system: MDA-MB-231 breast
HCT-15 colon = test system: HCT-15 colon
OVCAR-4 ovarian = test system: OVCAR-4 ovarian
COLO 205 colon = test system: COLO 205 colon
UACC-62 melanoma = test system: UACC-62 melanoma
NCI-H23 lung = test system: NCI-H23 lung
UACC-257 melanoma = test system: UACC-257 melanoma
SF-539 CNS = test system: SF-539 CNS
HT29 colon = test system: HT29 colon
SK-MEL-2 melanoma = test system: SK-MEL-2 melanoma
OVCAR-3 ovarian = test system: OVCAR-3 ovarian
UO-31 renal = test system: UO-31 renal
CCRF-CEM leukemia = test system: CCRF-CEM leukemia
RXF 393 renal = test system: RXF 393 renal
SF-268 CNS = test system: SF-268 CNS
MALME-3M melanoma = test system: MALME-3M melanoma
NCI-H522 lung = test system: NCI-H522 lung
TK-10 renal = test system: TK-10 renal
HS 578T breast = test system: HS 578T breast
HL-60(TB) leukemia = test system: HL-60(TB) leukemia

SMILES: O=C(O)c1nc2ccc(C(F)(F)F)cc2nc1NCc1ccc(Cl)c(Cl)c1
- TGI (A549 NSCLC): 29.7 µM
- TGI (CAKI-1 renal): 36.9 µM
- TGI (SK-MEL-28 melanoma): 33.7 µM
- TGI (MCF7 breast): 45.3 µM
- TGI (SNB-19 CNS): 25.1 µM
- TGI (RPMI-8226 leukemia): > 100 µM
- TGI (NCI-H460 lung): 30.8 µM
- TGI (MDA-MB-435): 30 µM
- TGI (KM12 colon): 33.8 µM
- TGI (PC-3 prostate): 29.4 µM
- TGI (SN12C renal): 28.8 µM
- TGI (HOP-62 NSCLC): 32.2 µM
- TGI (SR leukemia): 36.5 µM
- TGI (SK-MEL-5 melanoma): 37.5 µM
- TGI (LOX IMVI melanoma): 29.8 µM
- TGI (A498 renal): 34.6 µM
- TGI (MOLT-4 leukemia): 34.2 µM
- TGI (SF-295 CNS): 37.2 µM
- TGI (M14 melanoma): 31.6 µM
- TGI (786-0 renal): 29.3 µM
- TGI (T-47D breast): 35.2 µM
- TGI (U251 CNS): 28.3 µM
- TGI (MDA-N): 35.1 µM
- TGI (EKVX NSCLC): 30.4 µM
- TGI (DU-145 prostate): 32.5 µM
- TGI (HOP-92 NSCLC): 32.2 µM
- TGI (SW-620 colon): 47.2 µM
- TGI (OVCAR-5 ovarian): 26.3 µM
- TGI (SK-OV-3 ovarian): 38.5 µM
- TGI (NCI/ADR-RES ovarian): 42.7 µM
- TGI (NCI-H226 lung): 44.1 µM
- TGI (ACHN renal): 30.5 µM
- TGI (IGROV1 ovarian): 30.7 µM
- TGI (HCT-116 colon): 29.7 µM
- TGI (SNB-75 CNS): 39.1 µM
- TGI (OVCAR-8 ovarian): 32.8 µM
- TGI (BT-549 breast): 33.1 µM
- TGI (K-562 leukemia): 42.1 µM
- TGI (HCC-2998 colon): 30.5 µM
- TGI (MDA-MB-231 breast): 34.5 µM
- TGI (HCT-15 colon): 36.5 µM
- TGI (OVCAR-4 ovarian): 51.4 µM
- TGI (COLO 205 colon): 37.4 µM
- TGI (UACC-62 melanoma): 32.5 µM
- TGI (NCI-H23 lung): 32.4 µM
- TGI (UACC-257 melanoma): 54.3 µM
- TGI (SF-539 CNS): 36.6 µM
- TGI (HT29 colon): 28.5 µM
- TGI (SK-MEL-2 melanoma): 27.8 µM
- TGI (OVCAR-3 ovarian): 24.6 µM
- TGI (UO-31 renal): 26.2 µM
- TGI (CCRF-CEM leukemia): > 100 µM

SMILES: OCCCNc1ncnc2[nH]ncc12
- TGI (A549 NSCLC): > 100 µM
- TGI (CAKI-1 renal): > 100 µM
- TGI (SK-MEL-28 melanoma): > 100 µM
- TGI (MCF7 breast): > 100 µM
- TGI (SNB-19 CNS): > 100 µM
- TGI (RPMI-8226 leukemia): > 100 µM
- TGI (NCI-H460 lung): > 100 µM
- TGI (MDA-MB-435): > 100 µM
- TGI (KM12 colon): > 100 µM
- TGI (PC-3 prostate): > 100 µM
- TGI (SN12C renal): > 100 µM
- TGI (HOP-62 NSCLC): > 100 µM
- TGI (RXF 393 renal): > 100 µM
- TGI (SK-MEL-5 melanoma): > 100 µM
- TGI (SF-268 CNS): > 100 µM
- TGI (LOX IMVI melanoma): > 100 µM
- TGI (A498 renal): > 100 µM
- TGI (MOLT-4 leukemia): > 100 µM
- TGI (SF-295 CNS): > 100 µM
- TGI (M14 melanoma): > 100 µM
- TGI (786-0 renal): > 100 µM
- TGI (T-47D breast): > 100 µM
- TGI (U251 CNS): > 100 µM
- TGI (MDA-N): > 100 µM
- TGI (EKVX NSCLC): > 100 µM
- TGI (DU-145 prostate): > 100 µM
- TGI (HOP-92 NSCLC): > 100 µM
- TGI (SW-620 colon): > 100 µM
- TGI (OVCAR-5 ovarian): > 100 µM
- TGI (SK-OV-3 ovarian): > 100 µM
- TGI (NCI/ADR-RES ovarian): > 100 µM
- TGI (MALME-3M melanoma): > 100 µM
- TGI (NCI-H226 lung): > 100 µM
- TGI (ACHN renal): > 100 µM
- TGI (IGROV1 ovarian): > 100 µM
- TGI (HCT-116 colon): > 100 µM
- TGI (NCI-H522 lung): > 100 µM
- TGI (SNB-75 CNS): > 100 µM
- TGI (OVCAR-8 ovarian): > 100 µM
- TGI (BT-549 breast): > 100 µM
- TGI (K-562 leukemia): > 100 µM
- TGI (HCC-2998 colon): > 100 µM
- TGI (MDA-MB-231 breast): > 100 µM
- TGI (HCT-15 colon): > 100 µM
- TGI (OVCAR-4 ovarian): > 100 µM
- TGI (COLO 205 colon): > 100 µM
- TGI (TK-10 renal): > 100 µM
- TGI (HS 578T breast): > 100 µM
- TGI (UACC-62 melanoma): > 100 µM
- TGI (NCI-H23 lung): > 100 µM
- TGI (UACC-257 melanoma): > 100 µM
- TGI (HL-60(TB) leukemia): > 100 µM
- TGI (SF-539 CNS): > 100 µM
- TGI (HT29 colon): > 100 µM
- TGI (SK-MEL-2 melanoma): > 100 µM
- TGI (OVCAR-3 ovarian): > 100 µM
- TGI (UO-31 renal): > 100 µM
- TGI (CCRF-CEM leukemia): > 100 µM
